Test results: ChEMBL document CHEMBL4507291 (2021)

Key:
[1] = molecular target: 5-hydroxytryptamine receptor 7 (Homo sapiens) (UniProt P34969); details: Compound concentration 10.0 uM
[2] = test system: Tyrosine-protein kinase ABL1 (Homo sapiens), P00519 [G250E]; test: ABL1 G250E Kinase screen; details: Compound concentration 1.0 uM
[3] = molecular target: T1, Aurora kinase C (Homo sapiens) (UniProt Q9UQB9); test: AURKC (Aurora C) Kinase screen; details: Compound concentration 1.0 uM
T1 sequence (whole entry): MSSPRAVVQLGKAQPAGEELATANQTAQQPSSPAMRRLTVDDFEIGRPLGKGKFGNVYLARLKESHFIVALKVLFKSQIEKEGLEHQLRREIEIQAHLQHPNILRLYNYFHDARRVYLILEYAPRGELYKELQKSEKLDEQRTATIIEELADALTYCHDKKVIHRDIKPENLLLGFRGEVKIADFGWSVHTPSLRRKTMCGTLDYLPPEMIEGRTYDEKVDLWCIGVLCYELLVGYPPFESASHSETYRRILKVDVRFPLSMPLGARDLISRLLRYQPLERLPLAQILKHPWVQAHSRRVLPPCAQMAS

[4] = molecular target: Casein kinase I isoform epsilon (Homo sapiens) (UniProt P49674); test: CSNK1E (CK1 epsilon) Kinase screen; details: Compound concentration 1.0 uM
[5] = molecular target: Ephrin type-A receptor 2 (Homo sapiens) (UniProt P29317); test: EPHA2 Kinase screen; details: Compound concentration 1.0 uM
[6] = molecular target: T2, Ephrin type-B receptor 2 (Homo sapiens) (UniProt P29323); test: EPHB2 Kinase screen; details: Compound concentration 1.0 uM
T2 sequence (whole entry): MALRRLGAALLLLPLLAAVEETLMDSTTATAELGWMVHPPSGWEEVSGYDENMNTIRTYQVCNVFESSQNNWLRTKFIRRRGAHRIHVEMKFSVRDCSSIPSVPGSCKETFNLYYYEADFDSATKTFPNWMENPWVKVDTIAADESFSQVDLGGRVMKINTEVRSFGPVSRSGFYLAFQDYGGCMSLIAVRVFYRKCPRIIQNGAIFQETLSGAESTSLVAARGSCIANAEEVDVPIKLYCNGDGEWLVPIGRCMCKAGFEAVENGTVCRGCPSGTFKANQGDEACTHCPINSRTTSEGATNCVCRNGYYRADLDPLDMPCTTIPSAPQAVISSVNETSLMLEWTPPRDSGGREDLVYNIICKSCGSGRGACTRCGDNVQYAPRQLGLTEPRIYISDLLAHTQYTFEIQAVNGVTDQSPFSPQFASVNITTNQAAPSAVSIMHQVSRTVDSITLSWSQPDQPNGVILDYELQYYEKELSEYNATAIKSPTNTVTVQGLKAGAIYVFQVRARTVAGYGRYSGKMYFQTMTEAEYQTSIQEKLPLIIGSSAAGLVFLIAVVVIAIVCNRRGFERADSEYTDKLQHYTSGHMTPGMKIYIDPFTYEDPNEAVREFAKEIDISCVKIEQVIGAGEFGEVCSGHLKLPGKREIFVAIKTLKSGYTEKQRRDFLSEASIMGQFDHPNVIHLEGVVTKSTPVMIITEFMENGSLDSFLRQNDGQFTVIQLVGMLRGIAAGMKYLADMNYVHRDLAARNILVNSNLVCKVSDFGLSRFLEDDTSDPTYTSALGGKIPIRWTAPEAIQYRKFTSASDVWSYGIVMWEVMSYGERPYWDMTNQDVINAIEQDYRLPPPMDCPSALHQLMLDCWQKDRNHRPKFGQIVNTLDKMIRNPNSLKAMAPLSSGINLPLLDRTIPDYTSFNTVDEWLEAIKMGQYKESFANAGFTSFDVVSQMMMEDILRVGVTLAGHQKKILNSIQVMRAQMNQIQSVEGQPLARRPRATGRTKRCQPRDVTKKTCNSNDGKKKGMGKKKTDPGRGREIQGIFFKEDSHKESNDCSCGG

[7] = molecular target: G protein-coupled receptor kinase 4 (Homo sapiens) (UniProt P32298); test: GRK4 Kinase screen; details: Compound concentration 1.0 uM
[8] = molecular target: T3, Megakaryocyte-associated tyrosine-protein kinase (Homo sapiens) (UniProt P42679); test: MATK (HYL) Kinase screen; details: Compound concentration 1.0 uM
T3 sequence (whole entry): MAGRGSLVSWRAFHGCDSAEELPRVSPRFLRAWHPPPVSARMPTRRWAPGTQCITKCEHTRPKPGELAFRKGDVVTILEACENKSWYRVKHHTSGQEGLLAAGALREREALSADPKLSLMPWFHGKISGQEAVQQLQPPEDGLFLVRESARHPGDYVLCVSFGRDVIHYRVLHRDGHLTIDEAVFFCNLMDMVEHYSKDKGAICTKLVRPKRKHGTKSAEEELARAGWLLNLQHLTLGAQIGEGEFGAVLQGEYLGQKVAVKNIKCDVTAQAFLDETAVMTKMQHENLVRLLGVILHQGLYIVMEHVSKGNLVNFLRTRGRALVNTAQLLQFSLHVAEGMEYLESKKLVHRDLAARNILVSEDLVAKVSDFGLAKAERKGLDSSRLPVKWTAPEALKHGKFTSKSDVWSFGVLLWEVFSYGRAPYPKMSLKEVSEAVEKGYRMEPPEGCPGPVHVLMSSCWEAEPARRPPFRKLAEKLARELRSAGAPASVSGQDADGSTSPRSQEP

[9] = molecular target: T4, Serine/threonine-protein kinase Nek2 (Homo sapiens) (UniProt P51955); test: NEK2 Kinase screen; details: Compound concentration 1.0 uM
T4 sequence (whole entry): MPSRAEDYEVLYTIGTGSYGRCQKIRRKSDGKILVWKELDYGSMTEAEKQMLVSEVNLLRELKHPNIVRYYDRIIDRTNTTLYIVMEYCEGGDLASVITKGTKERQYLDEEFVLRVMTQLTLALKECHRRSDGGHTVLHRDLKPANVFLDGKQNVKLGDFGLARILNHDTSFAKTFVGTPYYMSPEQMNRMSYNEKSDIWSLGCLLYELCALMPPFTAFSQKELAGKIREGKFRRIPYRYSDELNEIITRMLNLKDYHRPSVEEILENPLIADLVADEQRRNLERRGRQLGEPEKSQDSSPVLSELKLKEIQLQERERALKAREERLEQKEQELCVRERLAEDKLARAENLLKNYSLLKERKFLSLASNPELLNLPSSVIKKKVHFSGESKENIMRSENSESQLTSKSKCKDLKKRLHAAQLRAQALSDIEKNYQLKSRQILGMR

[10] = molecular target: Serine/threonine-protein kinase Nek6 (Homo sapiens) (UniProt Q9HC98); test: NEK6 Kinase screen; details: Compound concentration 1.0 uM
[11] = test system: Platelet-derived growth factor receptor alpha (Homo sapiens), P16234 [T674I]; test: PDGFRA T674I Kinase screen; details: Compound concentration 1.0 uM
[12] = molecular target: Serine/threonine-protein kinase pim-1 (Homo sapiens) (UniProt P11309); test: PIM1 Kinase screen; details: Compound concentration 1.0 uM
[13] = molecular target: Proto-oncogene tyrosine-protein kinase receptor Ret (Homo sapiens) (UniProt P07949); test: RET Kinase screen; details: Compound concentration 1.0 uM
[14] = molecular target: Non-receptor tyrosine-protein kinase TYK2 (Homo sapiens) (UniProt P29597); test: TYK2 Kinase screen; details: Compound concentration 1.0 uM
[15] = molecular target: Mu-type opioid receptor (Homo sapiens) (UniProt P35372); details: Compound concentration 10.0 uM
[16] = molecular target: Gastrin/cholecystokinin type B receptor (Homo sapiens) (UniProt P32239); details: Compound concentration 10.0 uM

Measured: inhibition

Serine/threonine-protein kinase Nek6 (Homo sapiens), sequence (Q9HC98 whole entry): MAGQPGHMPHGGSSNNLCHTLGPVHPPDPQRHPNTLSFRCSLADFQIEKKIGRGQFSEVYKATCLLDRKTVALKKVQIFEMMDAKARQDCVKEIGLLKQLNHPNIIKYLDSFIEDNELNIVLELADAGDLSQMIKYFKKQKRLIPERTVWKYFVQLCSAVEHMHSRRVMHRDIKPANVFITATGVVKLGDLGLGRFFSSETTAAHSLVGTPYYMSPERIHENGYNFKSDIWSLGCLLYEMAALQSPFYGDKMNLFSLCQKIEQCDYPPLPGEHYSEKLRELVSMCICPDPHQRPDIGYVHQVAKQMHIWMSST
Non-receptor tyrosine-protein kinase TYK2 (Homo sapiens), sequence (P29597 whole entry): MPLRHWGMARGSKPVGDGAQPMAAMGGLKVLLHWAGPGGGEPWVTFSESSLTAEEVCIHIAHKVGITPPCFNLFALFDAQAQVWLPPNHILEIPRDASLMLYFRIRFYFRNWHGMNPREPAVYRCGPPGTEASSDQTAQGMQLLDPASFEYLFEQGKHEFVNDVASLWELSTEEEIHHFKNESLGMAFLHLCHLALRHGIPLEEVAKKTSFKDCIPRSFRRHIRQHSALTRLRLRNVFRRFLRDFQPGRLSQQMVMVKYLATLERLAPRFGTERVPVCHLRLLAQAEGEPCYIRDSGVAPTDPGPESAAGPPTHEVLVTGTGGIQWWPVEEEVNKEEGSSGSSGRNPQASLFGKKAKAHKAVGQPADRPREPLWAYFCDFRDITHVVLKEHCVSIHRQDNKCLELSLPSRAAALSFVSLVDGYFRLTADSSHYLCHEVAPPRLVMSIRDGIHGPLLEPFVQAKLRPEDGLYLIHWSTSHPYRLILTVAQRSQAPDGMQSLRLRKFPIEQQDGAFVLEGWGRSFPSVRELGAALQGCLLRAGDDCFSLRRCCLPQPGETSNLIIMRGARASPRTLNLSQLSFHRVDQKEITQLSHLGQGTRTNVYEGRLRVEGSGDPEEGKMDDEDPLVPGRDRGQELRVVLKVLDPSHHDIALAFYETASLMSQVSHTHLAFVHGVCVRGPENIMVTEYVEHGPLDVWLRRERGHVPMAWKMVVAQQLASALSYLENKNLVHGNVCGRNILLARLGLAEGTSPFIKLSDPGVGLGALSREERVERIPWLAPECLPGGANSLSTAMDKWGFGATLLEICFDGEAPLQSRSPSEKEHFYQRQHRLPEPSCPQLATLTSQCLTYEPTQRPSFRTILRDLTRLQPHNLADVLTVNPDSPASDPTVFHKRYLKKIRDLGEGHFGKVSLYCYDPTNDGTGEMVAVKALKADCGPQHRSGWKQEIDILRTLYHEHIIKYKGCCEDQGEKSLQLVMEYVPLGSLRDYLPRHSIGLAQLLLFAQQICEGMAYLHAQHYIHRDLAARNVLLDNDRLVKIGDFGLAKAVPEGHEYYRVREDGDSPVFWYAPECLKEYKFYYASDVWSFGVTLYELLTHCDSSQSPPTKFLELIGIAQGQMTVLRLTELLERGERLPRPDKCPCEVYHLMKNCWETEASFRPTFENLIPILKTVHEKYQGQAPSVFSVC
Casein kinase I isoform epsilon (Homo sapiens), sequence (P49674 whole entry, looked up, canonical isoform): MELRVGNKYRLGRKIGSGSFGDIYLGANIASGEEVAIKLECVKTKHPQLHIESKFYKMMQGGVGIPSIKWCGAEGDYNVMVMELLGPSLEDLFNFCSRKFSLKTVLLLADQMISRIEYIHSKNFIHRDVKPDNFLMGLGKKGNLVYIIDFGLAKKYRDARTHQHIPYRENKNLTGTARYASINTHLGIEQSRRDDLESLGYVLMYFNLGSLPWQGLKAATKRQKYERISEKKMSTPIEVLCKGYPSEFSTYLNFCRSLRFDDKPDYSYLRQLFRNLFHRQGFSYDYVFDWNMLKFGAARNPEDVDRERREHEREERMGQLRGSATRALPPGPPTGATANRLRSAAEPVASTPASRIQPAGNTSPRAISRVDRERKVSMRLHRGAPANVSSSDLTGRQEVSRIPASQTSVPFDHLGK
Proto-oncogene tyrosine-protein kinase receptor Ret (Homo sapiens), sequence (P07949 whole entry): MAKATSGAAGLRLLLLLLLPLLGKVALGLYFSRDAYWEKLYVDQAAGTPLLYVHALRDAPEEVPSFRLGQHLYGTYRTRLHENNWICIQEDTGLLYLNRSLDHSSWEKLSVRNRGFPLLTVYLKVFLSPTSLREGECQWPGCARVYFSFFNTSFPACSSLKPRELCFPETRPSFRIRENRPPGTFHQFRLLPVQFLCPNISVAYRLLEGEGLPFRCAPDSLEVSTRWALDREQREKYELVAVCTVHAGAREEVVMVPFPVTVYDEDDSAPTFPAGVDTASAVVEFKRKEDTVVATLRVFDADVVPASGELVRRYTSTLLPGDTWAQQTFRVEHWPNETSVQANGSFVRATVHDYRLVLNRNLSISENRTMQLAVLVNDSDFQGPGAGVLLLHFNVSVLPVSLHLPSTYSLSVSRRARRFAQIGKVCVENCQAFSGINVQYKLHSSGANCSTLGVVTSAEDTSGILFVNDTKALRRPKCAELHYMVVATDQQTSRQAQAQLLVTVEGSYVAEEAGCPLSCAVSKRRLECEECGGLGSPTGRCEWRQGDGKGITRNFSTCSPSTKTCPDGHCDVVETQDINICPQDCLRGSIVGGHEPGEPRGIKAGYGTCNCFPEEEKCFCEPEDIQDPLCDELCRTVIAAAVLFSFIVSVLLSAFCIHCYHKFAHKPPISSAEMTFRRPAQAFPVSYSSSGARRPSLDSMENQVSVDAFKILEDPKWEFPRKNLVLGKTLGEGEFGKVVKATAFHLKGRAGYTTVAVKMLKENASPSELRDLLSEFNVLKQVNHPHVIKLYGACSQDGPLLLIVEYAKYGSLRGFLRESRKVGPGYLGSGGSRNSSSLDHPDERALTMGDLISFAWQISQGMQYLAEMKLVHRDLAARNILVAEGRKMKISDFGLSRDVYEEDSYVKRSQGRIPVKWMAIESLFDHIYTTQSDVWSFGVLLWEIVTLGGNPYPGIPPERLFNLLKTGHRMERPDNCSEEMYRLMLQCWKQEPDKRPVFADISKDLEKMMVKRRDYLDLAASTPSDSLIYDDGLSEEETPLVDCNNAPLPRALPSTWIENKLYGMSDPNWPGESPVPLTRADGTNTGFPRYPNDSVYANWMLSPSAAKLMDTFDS
Serine/threonine-protein kinase pim-1 (Homo sapiens), sequence (P11309 whole entry, looked up): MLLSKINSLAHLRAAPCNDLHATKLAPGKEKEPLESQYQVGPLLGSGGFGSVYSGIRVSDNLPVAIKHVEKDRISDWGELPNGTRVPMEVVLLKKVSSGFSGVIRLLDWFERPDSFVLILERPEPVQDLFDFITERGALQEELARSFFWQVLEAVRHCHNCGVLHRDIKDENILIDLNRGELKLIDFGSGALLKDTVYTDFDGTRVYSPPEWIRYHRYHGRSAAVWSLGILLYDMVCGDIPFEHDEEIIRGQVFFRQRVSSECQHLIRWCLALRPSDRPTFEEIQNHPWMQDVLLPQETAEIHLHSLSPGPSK
G protein-coupled receptor kinase 4 (Homo sapiens), sequence (P32298 whole entry, looked up): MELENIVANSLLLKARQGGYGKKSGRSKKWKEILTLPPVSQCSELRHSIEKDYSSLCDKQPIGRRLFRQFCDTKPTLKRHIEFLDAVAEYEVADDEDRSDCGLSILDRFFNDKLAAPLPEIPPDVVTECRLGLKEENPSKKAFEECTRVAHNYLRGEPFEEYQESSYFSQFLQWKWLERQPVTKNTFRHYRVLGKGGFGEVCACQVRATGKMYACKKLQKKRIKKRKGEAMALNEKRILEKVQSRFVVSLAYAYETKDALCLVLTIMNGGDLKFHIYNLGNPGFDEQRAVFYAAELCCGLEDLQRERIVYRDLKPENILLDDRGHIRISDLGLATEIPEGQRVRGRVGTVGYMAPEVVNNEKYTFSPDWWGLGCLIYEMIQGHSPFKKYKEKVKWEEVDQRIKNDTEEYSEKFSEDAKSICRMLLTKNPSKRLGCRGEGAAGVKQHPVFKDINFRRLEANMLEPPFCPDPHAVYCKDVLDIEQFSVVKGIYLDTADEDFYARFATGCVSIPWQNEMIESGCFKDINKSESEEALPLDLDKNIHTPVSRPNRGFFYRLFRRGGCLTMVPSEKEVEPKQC
Mu-type opioid receptor (Homo sapiens), sequence (P35372 whole entry): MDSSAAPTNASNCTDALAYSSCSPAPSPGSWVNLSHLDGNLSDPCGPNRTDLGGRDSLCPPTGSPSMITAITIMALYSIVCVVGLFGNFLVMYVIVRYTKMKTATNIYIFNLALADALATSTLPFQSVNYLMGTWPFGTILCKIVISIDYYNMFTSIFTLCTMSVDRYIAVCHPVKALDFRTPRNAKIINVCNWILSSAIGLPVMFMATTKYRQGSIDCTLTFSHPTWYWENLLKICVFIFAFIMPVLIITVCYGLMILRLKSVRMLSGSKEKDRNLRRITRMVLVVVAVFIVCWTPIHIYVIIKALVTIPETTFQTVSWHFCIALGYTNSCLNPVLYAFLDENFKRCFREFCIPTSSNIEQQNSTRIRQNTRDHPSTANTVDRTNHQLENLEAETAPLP
Gastrin/cholecystokinin type B receptor (Homo sapiens), sequence (P32239 whole entry): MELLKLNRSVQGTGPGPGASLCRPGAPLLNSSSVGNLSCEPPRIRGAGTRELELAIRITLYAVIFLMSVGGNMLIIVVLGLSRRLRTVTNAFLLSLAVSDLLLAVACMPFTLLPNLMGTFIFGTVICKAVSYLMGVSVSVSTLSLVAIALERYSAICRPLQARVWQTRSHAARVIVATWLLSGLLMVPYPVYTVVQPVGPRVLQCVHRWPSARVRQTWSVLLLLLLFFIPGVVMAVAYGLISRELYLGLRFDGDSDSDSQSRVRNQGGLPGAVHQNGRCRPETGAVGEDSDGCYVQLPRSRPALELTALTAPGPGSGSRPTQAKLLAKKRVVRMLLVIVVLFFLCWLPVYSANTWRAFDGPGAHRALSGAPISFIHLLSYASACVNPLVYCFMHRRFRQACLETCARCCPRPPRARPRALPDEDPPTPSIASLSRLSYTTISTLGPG

C[C@@H]1CN(c2cc(-c3nn(C)c4ccc(OC5(C)CC5)cc34)ncn2)C[C@H](C)O1 [MLi-2-NC]
inactive: [1] -0.4%

C[C@@H]1CN(c2cc(-c3n[nH]c4ccc(OC5(C)CC5)cc34)ncn2)C[C@H](C)O1 [MLi-2]
inactive: [2] 4.45% | [3] 1.85% | [4] 8.14% | [5] -4.26% | [6] -1.14% | [7] 6.02% | [8] 3.28% | [9] -2.6% | [10] 4.75% | [11] 23.5% | [12] -2.73% | [13] 5.76% | [14] 1.17% | [15] 17% | [16] 15%
